From PubChem BioAssay AID1919006 (Molecular Pharmacology Branch, DTP, NCI, 2023)
pIC50: −log10 of the molar value. “And” between values parts separate entries of the source, which are not always exact repeats. Equal values may be shown once. One block for each molecule: values may come before it.

System: 885512-296-R-J2-PDC complex spheroid growth, % test/control
Assay: Anticancer human tumor 885512-296-R-J2-PDC patient-derived breast carcinoma cell line growth inhibition [AhR]
Conditions: for viability, T/C: stronger effect = lower value
Procedure, shortened: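 Complex tumor spheroids co-cultured with HUVEC and human MSC stroma; AhR antagonists tested in combination with standard-of-care and investigational agents. Top concentration at or near clinical Cmax (else 10 microM), half-log dilutions; growth expressed as percent test/control.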

[1] = curve of first compound, second compound 0.1 µM
[2] = curve of first compound, second compound 0.316 µM
[3] = curve of first compound, second compound 1 µM
[4] = curve of first compound, second compound 3.16 µM
[5] = curve of first compound, second compound 10 µM
[6] = second compound 0.1 µM, first compound 0.0316 µM
[7] = second compound 0.1 µM, first compound 0.1 µM
[8] = second compound 0.1 µM, first compound 0.316 µM
[9] = second compound 0.1 µM, first compound 1 µM
[10] = second compound 0.1 µM, first compound 3.16 µM
[11] = second compound 0.1 µM, first compound 10 µM
[12] = second compound 0.316 µM, first compound 0.0316 µM
[13] = second compound 0.316 µM, first compound 0.1 µM
[14] = second compound 0.316 µM, first compound 0.316 µM
[15] = second compound 0.316 µM, first compound 1 µM
[16] = second compound 0.316 µM, first compound 3.16 µM
[17] = second compound 0.316 µM, first compound 10 µM
[18] = second compound 1 µM, first compound 0.0316 µM
[19] = second compound 1 µM, first compound 0.1 µM
[20] = second compound 1 µM, first compound 0.316 µM
[21] = second compound 1 µM, first compound 1 µM
[22] = second compound 1 µM, first compound 3.16 µM
[23] = second compound 1 µM, first compound 10 µM
[24] = second compound 3.16 µM, first compound 0.0316 µM
[25] = second compound 3.16 µM, first compound 0.1 µM
[26] = second compound 3.16 µM, first compound 0.316 µM
[27] = second compound 3.16 µM, first compound 1 µM
[28] = second compound 3.16 µM, first compound 3.16 µM
[29] = second compound 3.16 µM, first compound 10 µM
[30] = second compound 10 µM, first compound 0.0316 µM
[31] = second compound 10 µM, first compound 0.1 µM
[32] = second compound 10 µM, first compound 0.316 µM
[33] = second compound 10 µM, first compound 1 µM
[34] = second compound 10 µM, first compound 3.16 µM
[35] = second compound 10 µM, first compound 10 µM
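Note: spheroids exposed to compounds for seven days.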

Compound: NS(=O)(=O)OCC1CC(n2ccc3c(NC4CCc5ccccc54)ncnc32)CC1O (stereo unspecified) + CC(CO)NC(=O)c1cc(-c2ccc(Cl)cc2)nn(-c2cnn(C)c2)c1=O
- pIC50 [1]: 7.01
- pIC50 [2]: 7.00
- pIC50 [3]: 7.00
- pIC50 [4]: 7.05
- pIC50 [5]: 7.23
- viability, T/C [6]: 111%
- viability, T/C [7]: 48.4%
- viability, T/C [8]: 15%
- viability, T/C [9]: 7.66%
- viability, T/C [10]: 6.85%
- viability, T/C [11]: 5.35%
- viability, T/C [12]: 97.6%
- viability, T/C [13]: 49.5%
- viability, T/C [14]: 15.9%
- viability, T/C [15]: 7.66%
- viability, T/C [16]: 5.71%
- viability, T/C [17]: 6.67%
- viability, T/C [18]: 106%
- viability, T/C [19]: 50.3%
- viability, T/C [20]: 17.3%
- viability, T/C [21]: 7.69%
- viability, T/C [22]: 7.18%
- viability, T/C [23]: 7.68%
- viability, T/C [24]: 84.1%
- viability, T/C [25]: 46.1%
- viability, T/C [26]: 16.7%
- viability, T/C [27]: 7.54%
- viability, T/C [28]: 7.16%
- viability, T/C [29]: 7.08%
- viability, T/C [30]: 65.6%
- viability, T/C [31]: 36.1%
- viability, T/C [32]: 19.3%
- viability, T/C [33]: 8.18%
- viability, T/C [34]: 6.74%
- viability, T/C [35]: 6.33%

Compound: COc1cc(C2c3cc4c(cc3C(OC3OC5COC(C)OC5C(O)C3O)C3COC(=O)C23)OCO4)cc(OC)c1O (stereo unspecified) + CC(CO)NC(=O)c1cc(-c2ccc(Cl)cc2)nn(-c2cnn(C)c2)c1=O
- pIC50 [1]: 6.11
- pIC50 [2]: 6.16
- pIC50 [3]: 6.17
- pIC50 [4]: 6.31
- pIC50 [5]: 6.51
- viability, T/C [6]: 102%
- viability, T/C [7]: 106%
- viability, T/C [8]: 85.9%
- viability, T/C [9]: 39.8%
- viability, T/C [10]: 10.2%
- viability, T/C [11]: 7.1%
- viability, T/C [12]: 96.5%
- viability, T/C [13]: 89.2%
- viability, T/C [14]: 74.8%
- viability, T/C [15]: 39.9%
- viability, T/C [16]: 9.03%
- viability, T/C [17]: 7.53%
- viability, T/C [18]: 101%
- viability, T/C [19]: 103%
- viability, T/C [20]: 81.6%
- viability, T/C [21]: 33.3%
- viability, T/C [22]: 10.9%
- viability, T/C [23]: 8.44%
- viability, T/C [24]: 110%
- viability, T/C [25]: 97.6%
- viability, T/C [26]: 68.4%
- viability, T/C [27]: 20.8%
- viability, T/C [28]: 12.2%
- viability, T/C [29]: 7.27%
- viability, T/C [30]: 91.5%
- viability, T/C [31]: 89.1%
- viability, T/C [32]: 48.7%
- viability, T/C [33]: 17.7%
- viability, T/C [34]: 13.8%
- viability, T/C [35]: 9.69%

Compound: NS(=O)(=O)OCC1CC(n2ccc3c(NC4CCc5ccccc54)ncnc32)CC1O (stereo unspecified)
- viability, T/C (compound 0.0316 µM): 87% and 90.8% and 96.4%
- viability, T/C (compound 0.1 µM): 45.5% and 46.1% and 46.9%
- viability, T/C (compound 0.316 µM): 13.6% and 12.9% and 16%
- viability, T/C (compound 1 µM): 6.2% and 6.25% and 7.3%
- viability, T/C (compound 3.16 µM): 5.6% and 5% and 5.76%
- viability, T/C (compound 10 µM): 4.67% and 3.65% and 5.16%
- pIC50 (curve of compound): 7.05 and 7.04 and 7.03

Compound: CC1COCCN1c1cc(C2(S(C)(=N)=O)CC2)nc(-c2ccnc3[nH]ccc23)n1 (stereo unspecified)
- viability, T/C (compound 0.0316 µM): 103% and 100% and 97%
- viability, T/C (compound 0.1 µM): 107% and 96.4% and 98.6%
- viability, T/C (compound 0.316 µM): 101% and 104% and 91.9%
- viability, T/C (compound 1 µM): 86.5% and 73.7% and 82.7%
- viability, T/C (compound 3.16 µM): 31.6% and 18.2% and 17.2%
- viability, T/C (compound 10 µM): 5.26% and 5.01% and 5.03%
- pIC50 (curve of compound): 5.67 and 5.79 and 5.75

Compound: CCc1c2c(nc3ccc(O)cc13)-c1cc3c(c(=O)n1C2)COC(=O)[C@]3(O)CC
- viability, T/C (compound 0.000949 µM): 17.5% and 17.7% and 9.88%
- viability, T/C (compound 0.003 µM): 9.21% and 7.45% and 8.07%
- viability, T/C (compound 0.00949 µM): 6.22% and 5.99% and 5.4%
- viability, T/C (compound 0.03 µM): 4.21% and 4.52% and 3.14%
- viability, T/C (compound 0.0949 µM): 2.53% and 2.06% and 1.76%
- viability, T/C (compound 0.3 µM): 1.46% and 1.11% and 1.27%
- pIC50 (curve of compound): > 9.02

Further lines, with some results ahead:

- pIC50 [1]: 6.56
- pIC50 [2]: < 6.52
- pIC50 [3]: < 6.52
- pIC50 [4]: 6.63
- pIC50 [5]: 6.56
Compound: Nc1ncn(C2CC(O)C(CO)S2)c(=O)n1 (stereo unspecified) + CC(CO)NC(=O)c1cc(-c2ccc(Cl)cc2)nn(-c2cnn(C)c2)c1=O
- viability, T/C (second compound 0.1 µM, first compound 0.000949 µM): 98.8%
- viability, T/C (second compound 0.1 µM, first compound 0.003 µM): 117%
- viability, T/C (second compound 0.1 µM, first compound 0.00949 µM): 108%
- viability, T/C (second compound 0.1 µM, first compound 0.03 µM): 125%
- viability, T/C (second compound 0.1 µM, first compound 0.0949 µM): 77%
- viability, T/C (second compound 0.1 µM, first compound 0.3 µM): 47.5%
- viability, T/C (second compound 0.316 µM, first compound 0.000949 µM): 106%
- viability, T/C (second compound 0.316 µM, first compound 0.003 µM): 92.9%
- viability, T/C (second compound 0.316 µM, first compound 0.00949 µM): 146%
- viability, T/C (second compound 0.316 µM, first compound 0.03 µM): 111%
- viability, T/C (second compound 0.316 µM, first compound 0.0949 µM): 80.5%
- viability, T/C (second compound 0.316 µM, first compound 0.3 µM): 54.2%
- viability, T/C (second compound 1 µM, first compound 0.000949 µM): 106%
- viability, T/C (second compound 1 µM, first compound 0.003 µM): 104%
- viability, T/C (second compound 1 µM, first compound 0.00949 µM): 113%
- viability, T/C (second compound 1 µM, first compound 0.03 µM): 127%
- viability, T/C (second compound 1 µM, first compound 0.0949 µM): 81.4%
- viability, T/C (second compound 1 µM, first compound 0.3 µM): 54.1%
- viability, T/C (second compound 3.16 µM, first compound 0.000949 µM): 97.9%
- viability, T/C (second compound 3.16 µM, first compound 0.003 µM): 101%
- viability, T/C (second compound 3.16 µM, first compound 0.00949 µM): 112%
- viability, T/C (second compound 3.16 µM, first compound 0.03 µM): 87.2%
- viability, T/C (second compound 3.16 µM, first compound 0.0949 µM): 72.2%
- viability, T/C (second compound 3.16 µM, first compound 0.3 µM): 43.9%
- viability, T/C (second compound 10 µM, first compound 0.000949 µM): 101%
- viability, T/C (second compound 10 µM, first compound 0.003 µM): 96.3%
- viability, T/C (second compound 10 µM, first compound 0.00949 µM): 100%
- viability, T/C (second compound 10 µM, first compound 0.03 µM): 93.1%
- viability, T/C (second compound 10 µM, first compound 0.0949 µM): 70.8%
- viability, T/C (second compound 10 µM, first compound 0.3 µM): 48.2%

- pIC50 [1]: 6.02
- pIC50 [2]: 6.09
- pIC50 [3]: 6.08
- pIC50 [4]: 6.03
- pIC50 [5]: < 6.00
Compound: Nc1ncn(C2CC(O)C(CO)O2)c(=O)n1 (stereo unspecified) + Cc1ccccc1N=Nc1ccc(NC(=O)c2ccnn2C)c(C)c1
- viability, T/C (second compound 0.1 µM, first compound 0.00316 µM): 114%
- viability, T/C (second compound 0.1 µM, first compound 0.01 µM): 128%
- viability, T/C [6]: 112%
- viability, T/C [7]: 106%
- viability, T/C [8]: 74.2%
- viability, T/C [9]: 48.9%
- viability, T/C (second compound 0.316 µM, first compound 0.00316 µM): 109%
- viability, T/C (second compound 0.316 µM, first compound 0.01 µM): 114%
- viability, T/C [12]: 122%
- viability, T/C [13]: 111%
- viability, T/C [14]: 78.3%
- viability, T/C [15]: 43.9%
- viability, T/C (second compound 1 µM, first compound 0.00316 µM): 111%
- viability, T/C (second compound 1 µM, first compound 0.01 µM): 108%
- viability, T/C [18]: 122%
- viability, T/C [19]: 106%
- viability, T/C [20]: 80%
- viability, T/C [21]: 44.7%
- viability, T/C (second compound 3.16 µM, first compound 0.00316 µM): 88.8%
- viability, T/C (second compound 3.16 µM, first compound 0.01 µM): 79.2%
- viability, T/C [24]: 112%
- viability, T/C [25]: 95.5%
- viability, T/C [26]: 77.3%
- viability, T/C [27]: 48.1%
- viability, T/C (second compound 10 µM, first compound 0.00316 µM): 50.6%
- viability, T/C (second compound 10 µM, first compound 0.01 µM): 58.4%
- viability, T/C [30]: 62.8%
- viability, T/C [31]: 67%
- viability, T/C [32]: 60.1%
- viability, T/C [33]: 48.3%
